Source: PMC2363166, “Water-soluble aluminium phthalocyanine–polymer conjugates for PDT: photodynamic activities and pharmacokinetics in tumour-bearing mice” (British Journal of Cancer, 1999)

What was measured:
[1] = Biodistribution and plasma clearance after i.v. injection in EMT-6 tumour-bearing mice; type: in vivo
Excerpt: (§1) Among the second-generation photosensitizers (PS) developed for the treatment of neoplastic diseases by photodynamic therapy (PDT) (Kessel, 1996; Ochsner, 1997), metallo-phthalocyanines (MePc) have been proposed (Spikes, 1986; van Lier, 1990; Rosenthal, 1991) as an alternative to Photofrin (PII), the only PS currently approved for clinical use. Their stronger absorption in the red part of the spectrum (molar extinction coefficient, […] at 675 nm), where the depth of light penetration in tissues is twice that obtained at 630 nm with PII (Svaasand, 1984), together with their chemical homogeneity and their lower potential to induce cutaneous photosensitivity (Roberts et al, 1989; Tralau et al, 1989) are major advantages over PII. Unsubstituted MePc are not soluble in physiological solvents and their in vivo administration relies upon their incorporation into carriers, such as the liposomal formulation of ZnPc (Isele et al, 1995), or their chemical conversion into water-soluble dyes by the attachment of selected substituents onto the benzene rings of the macrocycle. An inverse relationship was related between the degree of substitution by sulphonato groups of MePc and their hydrophobicity and photodynamic activities, both at the cellular level and in tumour-bearing mice (Brasseur et al, 1987, 1988; Paquette et al, 1988; Berg et al, 1989; Chan et al, 1990, 1991; Margaron et al, 1996a). The potential of the water-soluble aluminium sulphophthalocyanine (AlPcS) to generate activated oxygen species (Sharman et al, 1999) and to induce a photo- dynamic response in vivo has been widely evaluated, and a mixture of AlPcS bearing 2-4 sulphonato groups per Pc (Photosense) is used extensively and successfully in clinical PDT in Russia (Zharkova et al, 1994). […] The unsubstituted AlClPc has, however, attracted less attention even though it has been shown that this compound formulated as a Cremophor emulsion was preferentially retained by a gliosarcoma and was able to induce tumour necrosis in this model (Dereski et al, 1994). […] However, Cremophor oil is known to induce unwanted side-effects in patients (Dye and Watkins, Water-soluble aluminium phthalocyaninepolymer conjugates for PDT: photodynamic activities and pharmacokinetics in tumour-bearing mice N Brasseur, R Ouellet, C La Madeleine and JE van Lier MRC Group in the Radiation Sciences, Faculty of Medicine, Universite de Sherbrooke, Sherbrooke, Quebec, J1H 5N4, Canada Summary The potential use of unsubstituted aluminium phthalocyanine (AlClPc) as a sensitizer for photodynamic therapy (PDT) of cancer has not been fully exploited in spite of its higher efficiency as compared to the sulphonated derivatives. This is largely due to the strong hydrophobic character of AlClPc which renders the material difficult to formulate for in vivo administration. We prepared two water-soluble derivatives of AlClPc by axial coordination of polyethyleneglycol (PEG, MW 2000) or polyvinylalcohol (PVA, MW 13 000-23 000) to the central aluminium ion. Their photodynamic activities were evaluated in vitro against the EMT-6 mouse mammary tumour cells and in vivo against the EMT-6 and the colon carcinoma Colo-26 tumours implanted intradermally in Balb/c mice. Pharmacokinetics were studied in the EMT-6 tumour-bearing mice. […] All three dye preparations induced complete EMT-6 tumour regression in 75-100% of animals at a low drug dose ([…] ) following PDT (400 J cm-2 , 650-700 nm) at 24 h pi. Complete tumour regression in the Colo-26 tumour model was obtained in 30% of mice at a dose of […] . In the non-cured animals, AlPc-PVA induced the most significant tumour growth delay. […] Moreover, in the case of the polyvinylalcohol derivative, axial coordination confers advantageous pharmacokinetics to AlPc, which makes this photosensitizer a valuable, water soluble candidate drug for clinical PDT of cancer. […]

[2] = tested on: EMT-6 mouse mammary tumour cells; test: Cellular photoinactivation, MTT cell survival after red light; type: cell-based; conditions: 1% FBS, red light 660-700 nm
Excerpt: Among the second-generation photosensitizers (PS) developed for the treatment of neoplastic diseases by photodynamic therapy (PDT) (Kessel, 1996; Ochsner, 1997), metallo-phthalocyanines (MePc) have been proposed (Spikes, 1986; van Lier, 1990; Rosenthal, 1991) as an alternative to Photofrin (PII), the only PS currently approved for clinical use. Their stronger absorption in the red part of the spectrum (molar extinction coefficient, […] at 675 nm), where the depth of light penetration in tissues is twice that obtained at 630 nm with PII (Svaasand, 1984), together with their chemical homogeneity and their lower potential to induce cutaneous photosensitivity (Roberts et al, 1989; Tralau et al, 1989) are major advantages over PII. […] The potential of the water-soluble aluminium sulphophthalocyanine (AlPcS) to generate activated oxygen species (Sharman et al, 1999) and to induce a photo- dynamic response in vivo has been widely evaluated, and a mixture of AlPcS bearing 2-4 sulphonato groups per Pc (Photosense) is used extensively and successfully in clinical PDT in Russia (Zharkova et al, 1994). […] Their photodynamic activities were evaluated in vitro against the EMT-6 mouse mammary tumour cells and in vivo against the EMT-6 and the colon carcinoma Colo-26 tumours implanted intradermally in Balb/c mice. […]

Colo-26 tumour = test: Photodynamic therapy of the Colo-26 tumour implanted i.d. in Balb/c mice; type: in vivo; set-up: Oedema observed 24 h after PDT: key to the marks not given beside the values
Excerpt: as §1

EMT-6 tumour = conditions: 0.25 μmol kg-1 i.v., PDT 24 h p.i., 400 J cm-2, ref Chan et al (1997); cited from earlier work
[3] = 6 h after i.v. 2 μmol kg-1, n = 4
[4] = 24 h after i.v. 2 μmol kg-1, n = 4
[5] = 48 h after i.v. 2 μmol kg-1, n = 4
[6] = 168 h after i.v. 2 μmol kg-1, n = 4
[7] = Colo-26 tumour, 2 μmol kg-1 i.v., PDT 24 h p.i., 400 J cm-2

**Q.** What does the source list for `[Cl][Al]1[n]2c3c4ccccc4c2N=C2N=C(N=c4c5ccccc5c([n]41)=NC1=NC(=N3)c3ccccc31)c1ccccc12` [AlClPc, aluminium phthalocyanine]?
**A.** retention by the liver ([1]; 1-week pi, i.v. 2 μmol kg-1): 73%; Tumour-to-plasma ratio [1, 3]: 0.4; Tumour-to-skin ratio [1, 3]: 3.5; Tumour-to-tumour skin ratio [1, 3]: 1.0; Tumour-to-muscle ratio [1, 4]: 16.9; Tumour-to-plasma ratio [1, 4]: >>; Tumour-to-skin ratio [1, 4]: 5.3; Tumour-to-tumour skin ratio [1, 4]: 1.0; Tumour-to-muscle ratio [1, 5]: 19.5; Tumour-to-plasma ratio [1, 5]: >>; Tumour-to-skin ratio [1, 5]: 3.3; Tumour-to-tumour skin ratio [1, 5]: 0.7; Tumour-to-muscle ratio [1, 6]: >>; Tumour-to-plasma ratio [1, 6]: >>; Tumour-to-skin ratio [1, 6]: 2.0; Tumour-to-tumour skin ratio [1, 6]: 0.9; plasma half-life ([1]; i.v. 2 μmol kg-1, EMT-6 tumour-bearing mice): 2.6 h; light dose required to kill 90% of cells (LD90) ([2]; 1 h incubation, 10 mW cm-2, max 36 J cm-2): 13.5 J cm-2; light dose required to kill 90% of cells (LD90) ([2]; 24 h incubation, 10 mW cm-2): 4.5 J cm-2; damage to leg muscle (Colo-26 tumour; 2 μmol kg-1, PDT 24 h p.i.): did not induce damage to leg muscle; tumour regrowth delay relative to controls (Colo-26 tumour; Colo-26 tumour, 2 μmol kg-1, non-cured mice): 1.5 times that of the controls; Tumour response, Regression (flat and necrotic within 3-5 days after PDT) (Colo-26 tumour; Colo-26 tumour, 2 μmol kg-1 i.v., PDT 24 h p.i., 200 mW cm-2, 400 J cm-2): 80 % of mice; Oedema observed 24 h after PDT (Colo-26 tumour; [7]): ++; Tumour response, Cure (complete tumour regression at 30 days minimum) (Colo-26 tumour; [7]): 30 % of mice; Regrowth to 20 Vo (time for tumour to reach 20 times the volume at the time of PDT) (Colo-26 tumour; Colo-26 tumour, 2 μmol kg-1 i.v., PDT 24 h p.i., non-cured mice only, controls 15.0 (0.3)): 23.5 (2.1) days (s.e.m.); Oedema observed 24 h after PDT (EMT-6 tumour): +; Tumour response, Cure (complete tumour regression at 21 days) (EMT-6 tumour): 100 % of mice; Tumour response, Regression (flat and necrotic within 3-5 days after PDT) (EMT-6 tumour): 100 % of mice
